“Also recorded” adds a separate entry of the source. Where two headings read alike, the source gives them in different places.
Key:
[1] = tested on: P. falciparum K1 (chloroquine-resistant); test: In vitro anti-plasmodial activity, K1; type: cell-based, Plasmodium falciparum
Description: (§5) The anti-T. cruzi activity was determined using intracellular amastigote forms of T. cruzi Tulahuen strain C2C4 in rat skeletal myoblasts (L6 cells) as described previously [24]. The anti-L. donovani activity was determined using the amastigotes of L. donovani strain MHOM-ET-67/L82 as described previously [24]. […] The cytotoxicity assays against rat skeletal myoblast L6-cells were performed as described previously [24].

[2] = tested on: T. b. rhodesiense KETRi 243 (melarsoprol, pentamidine- and diminazene diaceturate-resistant); parameters: method as in PMID 19736009; details: strain KETRI 243; average of at least two determinations; read-out: IC50 T.b. rhod; cited from earlier work
[3] = tested on: poly(dA-dT); test: DNA thermal melting with poly(dA-dT); type: binding; details: 1:5 compound to DNA base pair ratio; mean of at least two determinations
Description: (§1) In addition to the determination of the potency of the synthesized compounds against different strains of cell lines (Table 1), thermal melting experiments of these compounds were also conducted with poly(dA-dT) and calf thymus DNA (Table S1, supplementary file). […] The weaker binding to DNA (lower ΔTm values) compared to pentamidine might be attributed to the lower lipophilicity and higher PSA properties of these compounds since they would be expected to bind less favorably in the less polar environment of the minor grove of DNA as was reported for the aza-analogues of furamidine. […] Therefore, ability of these compounds to act at other potential targets cannot be ruled out.
(§2) The DNA binding affinity of the tested compounds was determined by measuring the change in mid-point of the thermal denaturation curves for a 1:5 compound to DNA base pair ratio as described previously. Each Tm value reported in Table S1 (supplementary file) represents the mean of at least two experimental determinations.

[4] = tested on: T. b. rhodesiense KETRi 243 (melarsoprol, pentamidine- and diminazene diaceturate-resistant); test: In vitro antitrypanosomal activity, T.b. rhodesiense KETRI 243; type: cell-based, Trypanosoma brucei rhodesiense; details: Table S1, from IC50 of Table 1; for IC50: Trypanosoma brucei, RHODESIENSE, read-out: pIC50 T.b. rhod (converted)
Description: as §5

[5] = tested on: calf thymus DNA; test: DNA thermal melting with calf thymus DNA; type: binding; details: 1:5 compound to DNA base pair ratio; mean of at least two determinations
Description: as §1, §2

[6] = tested on: T. b. brucei Lab 110 EATRO (pentamidine-sensitive); test: In vitro antitrypanosomal activity, T.b. brucei Lab 110 EATRO; type: cell-based, Trypanosoma brucei brucei; details: Table S1, from IC50 of Table 1; for IC50: Trypanosoma brucei, read-out: pIC50 T.b. brucei (converted)
Description: The in vitro assays with the two isolates of T. brucei were conducted according to previously described procedures [14].

[7] = tested on: amastigotes of L. donovani strain MHOM-ET-67/L82; test: In vitro anti-L. donovani activity; type: cell-based, Leishmania donovani; details: for IC50: average of at least two determinations
Description: as §5

[8] = tested on: T.b. rhodesiense KETRI 2002; test: In vivo trypanocidal activity in mice, KETRI 2002; details: for Mean Survival: KETRI 2002
Description: (§3) The compounds were administered via the intraperitoneal route at doses ranging from 1.0 mg/kg/day to 25.0 mg/kg/day for 3 days unless otherwise noted. Pentamidine was used as the reference compound. All three of the tested compounds were effective in curing mice infected with the Lab 110 EATRO or KETRI 2002 strains at several doses.
(§4) The in vivo studies were conducted according to the procedures described previously.

[9] = tested on: intracellular amastigote forms of T. cruzi Tulahuen strain C2C4 in rat skeletal myoblasts (L6 cells); test: In vitro anti-T. cruzi activity; type: cell-based, Trypanosoma cruzi; details: for IC50: average of at least two determinations
Description: as §5

[10] = tested on: P. falciparum NF54 (chloroquine-sensitive); test: In vitro anti-plasmodial activity, NF54; type: cell-based, Plasmodium falciparum
[11] = tested on: T.b. brucei Lab 110 EATRO; test: In vivo trypanocidal activity in mice, Lab 110 EATRO; details: for Mean Survival: 1.0, 2.5, 5, 10 mg/kg/day i.p. for 3 days (all doses)
Description: as §3, §4

[12] = tested on: T. b. brucei Lab 110 EATRO (pentamidine-sensitive); parameters: method as in PMID 19736009; details: strain Lab 110; average of at least two determinations; cited from earlier work
[13] = tested on: rat skeletal myoblast L6-cells; test: Cytotoxicity against L6 cells; type: cell-based
Description: as §5

[14] = tested on: T.b. rhodesiense KETRI 1992; test: In vivo trypanocidal activity in mice, KETRI 1992; details: for Mean Survival: KETRI 1992
[15] = tested on: T.b. rhodesiense KETRI 2538; test: In vivo trypanocidal activity in mice, KETRI 2538; details: KETRI 2538; 1.0, 5, 10 mg/kg/day i.p. for 3 days (all doses)
Description: as §3, §4

[16] = tested on: both strains of P. falciparum; test: In vitro activity and selectivity, both strains of P. falciparum; type: cell-based, Plasmodium falciparum
Description: The selectivity index of these compounds for T. brucei (SIT.b) or P. falciparum (SIP.f) are defined as the ratio of the L6 cells IC50 to the T. brucei or P. falciparum IC50 values.
The in vitro assays with the two isolates of T. brucei were conducted according to previously described procedures [14]. […] The cytotoxicity assays against rat skeletal myoblast L6-cells were performed as described previously [24].

[17] = chloroquine-resistant strain, read-out: IC50 P. falcip K1
[18] = chloroquine-sensitive strain, read-out: IC50 P. falcip NF54
[19] = cytotoxicity, read-out: IC50 L6 Cells
[20] = Plasmodium falciparum, K1, Table S1, from IC50 of Table 1, read-out: pIC50 P. falcip K1 (converted)
[21] = Plasmodium falciparum, K1, chloroquine-resistant strain, read-out: IC50 P. falcip K1
[22] = Trypanosoma cruzi, TULAHUEN, L6
[23] = Rattus norvegicus, L6, cytotoxicity, read-out: IC50 L6 Cells

| Compound | pIC50 P. falcip K1 ([1]; Table S1, from IC50 of Table 1) | IC50 [1, 17] [nM] | IC50 [2] [nM] | Thermal Melting ΔTm Poly(dA-dT) [3] [C] | pIC50 T.b. rhod [4] | Thermal Melting ΔTm CT-DNA [5] [C] | pIC50 T.b. brucei [6] | IC50 [7] [nM] | IC50 [9] [nM] | IC50 [10, 18] [nM] | IC50 [12] [nM] | IC50 [13, 19] [nM] | also measured |
| --- | --- | --- | --- | --- | --- | --- | --- | --- | --- | --- | --- | --- | --- |
| N,N′-bis[4-(aminoiminomethyl)phenyl] heptane-1,7-dicarboxamide [Compound 11] | 8.699 | 2 | 2 | 10.7 | 8.699 | 6.4 | 8.699 | > 100000 | > 100000 | 2 | 2 | 43000 | curing of infected mice ([8]; KETRI 2002, i.p., 3 days): the most effective; also recorded: highly effective; Mean Survival ([8]; 1.0, 2.5, 5, 10 mg/kg/day i.p. for 3 days (all doses)): >30 days; Mean Survival [11]: >30 days; curing of infected mice ([11]; i.p., 3 days): the most effective; also recorded: highly effective |
| N=C(N)c1ccc(NC(=O)CCCCCCC(=O)Nc2ccc(C(=N)N)cc2)cc1 [Compound 12] | 8.222 | 6 | 1 | 13.2 | 9.000 | 7.1 | 8.523 | > 100000 | > 100000 | 2 | 3 | 38400 |  |
| N,N′-bis[4-(aminoiminomethyl)phenyl] nonane-1,9-dicarboxamide [Compound 13] | 8.097 | 8 | 240 | 7.5 | 6.620 | 4.6 | 6.398 | 67400 | 99500 | 2 | 400 | 49200 |  |
| N=C(N)c1cccc(NC(=O)CCCCC(=O)Nc2cccc(C(=N)N)c2)c1 [Compound 7] | 6.420 | 380 | 21 | 13.8 | 7.678 |  | 7.387 | > 100000 | > 100000 |  | 41 | > 100000 |  |
| N#Cc1ccc(NC(=O)CCCC(=O)Nc2ccc(C#N)cc2)cc1 [Compound 3] |  |  | 7900 | 0.15 |  | −0.2 |  |  |  |  | 6500 |  | IC50 [1, 20]: 44800 nM; IC50 [1, 21]: 44800 nM; IC50 [4]: 7910 nM; IC50 [6]: 6500 nM; IC50 ([7]; Leishmania donovani): > 100000 nM; IC50 [9, 22]: > 100000 nM; IC50 [13, 23]: > 100000 nM |
| COc1cc([C@@H]2c3cc4c(cc3[C@H](O)[C@H]3COC(=O)[C@H]23)OCO4)cc(OC)c1OC [podophyllotoxin, reference compound] |  |  |  |  |  |  |  |  |  |  |  |  | IC50 ([13]; Rattus norvegicus, L6, read-out: IC50 L6 Cells): 10 nM |
| N=C(N)c1ccc(NC(=O)CCCCC(=O)Nc2cccc(C(=N)N)c2)cc1 [Compound 10] | 8.398 | 4 | 7 |  | 8.155 |  | 7.921 | > 100000 | > 100000 | 15 | 12 | > 100000 |  |
| CCN(CC)CCCC(C)Nc1ccnc2cc(Cl)ccc12 (stereo not shown) [chloroquine, reference compound] |  |  |  |  |  |  |  |  |  |  |  |  | IC50 ([1]; Plasmodium falciparum, K1, read-out: IC50 P. falcip K1): 180 nM; IC50 ([10]; Plasmodium falciparum, NF54, read-out: IC50 P. falcip NF54): 6 nM |
| NC(=O)c1cccc(NC(=O)CCCCC(=O)Nc2cccc(C(N)=O)c2)c1 [Compound 9] |  |  | 1970 | 0.0 |  |  |  |  |  |  |  |  | IC50 [1, 21]: > 100000 nM; IC50 [4]: 1970 nM; IC50 ([7]; Leishmania donovani): > 100000 nM; IC50 [9, 22]: > 100000 nM; IC50 [13, 23]: 46400 nM |
| N,N′-bis[4-(aminoiminomethyl)phenyl] butane-1,4-dicarboxamide [Compound 2] | 6.538 | 290 | 2190 | 11.5 | 5.660 | 8.1 | 5.046 | > 100000 | > 100000 |  | 9000 | 28000 |  |
| N=C(N)c1ccc(NC(=O)CCCCCCCCC(=O)Nc2ccc(C(=N)N)cc2)cc1 [Compound 14] | 7.921 | 12 | 4 | 10.0 | 8.398 | 6.6 | 8.699 | 68500 | 76400 | 14 | 2 | 78600 |  |
| O=C(Cn1ccnc1[N+](=O)[O-])NCc1ccccc1 [benznidazole, reference compound] |  |  |  |  |  |  |  |  |  |  |  |  | IC50 [9, 22]: 1130 nM |
| N=C(N)c1ccc(OCCCCCOc2ccc(C(=N)N)cc2)cc1 [Pentamidine, pentamidine, reference compound] |  |  | 2 | 21.6 |  | 11.6 |  |  |  |  |  |  | IC50 [1, 20]: 180 nM; IC50 [4]: 2 nM; Mean Survival ([14]; 1 mg/kg/day i.p. for 3 days): 12.6 days; Mean Survival ([14]; 5 mg/kg/day i.p. for 3 days): 17.0 days; Mean Survival ([14]; 10 mg/kg/day i.p. for 3 days): 22.2 days; curing of infected mice ([14]; drug-resistant KETRI 1992, i.p., 3 days): ineffective; IC50 [6]: 2 nM; Mean Survival ([8]; 1.0, 5, 10 mg/kg/day i.p. for 3 days (all doses)): >30 days; Mean Survival [11]: >30 days; Mean Survival [15]: >30 days |
| N,N′-bis[4-(aminoiminomethyl)phenyl] dodecane-1,12-dicarboxamide [Compound 15] | 7.824 | 15 | 7 | 8.5 | 8.155 |  | 8.097 | 10700 | 80900 | 32 | 8 | 80200 |  |
| N,N′-bis[4-(aminoiminomethyl)phenyl] ethane-1,2-dicarboxamide [Compound 1] | 8.523 | 3 |  |  |  |  |  | > 100000 | > 100000 | 8 |  | > 100000 | activity against L. donovani ([7]; in vitro): inactive; IC50 ([16]; range over NF54 and K1, read-out: IC50 against both strains of P. falciparum): 3 to 8 nM; selectivity index for P. falciparum (SIP.f) ([16]; ratio of the L6 cells IC50 to the P. falciparum IC50): > 33,000; activity against T. cruzi ([9]; in vitro): inactive |
| NC(=O)c1ccc(NC(=O)CCCCC(=O)Nc2ccc(C(N)=O)cc2)cc1 [Compound 8] |  |  | 1100 | 0.0 |  |  |  |  |  |  | 2800 |  | IC50 [1, 21]: > 100000 nM; IC50 [4]: 1100 nM; IC50 [6]: 2800 nM; IC50 ([7]; Leishmania donovani): > 100000 nM; IC50 [9, 22]: > 100000 nM; IC50 [13, 23]: > 100000 nM |
